Laboratory results reported in article PMC11868595, “Safety, pharmacokinetics and efficacy of HA121-28 in patients with advanced solid tumors and RET fusion-positive non-small-cell lung cancer: a multicenter, open-label, single-arm phase 1/2 trial” (Signal Transduction and Targeted Therapy, 2025).

How the values were obtained:
[1] = Phase 1 clinical pharmacokinetics in plasma; format: in vivo, human
[2] = system: arterial ring angiogenesis; test: Rat arterial ring angiogenesis
Rat plasma kinetics = format: in vivo
[3] = Cynomolgus monkey plasma kinetics; format: in vivo
[4] = Excretion after gastric lavage; format: in vivo, rats
[5] = 28-day repeated dose toxicity; format: in vivo, Beagle dogs
CHL = CHL test; format: cell-based
Mouse micronucleus test = details: in vivo mouse micronucleus test
ALK1 = ALK1 (Homo sapiens, UniProt P37023); test: Tyrosine kinase inhibition; format: biochemical
ALK1, sequence (P37023 142-503 limits assumed): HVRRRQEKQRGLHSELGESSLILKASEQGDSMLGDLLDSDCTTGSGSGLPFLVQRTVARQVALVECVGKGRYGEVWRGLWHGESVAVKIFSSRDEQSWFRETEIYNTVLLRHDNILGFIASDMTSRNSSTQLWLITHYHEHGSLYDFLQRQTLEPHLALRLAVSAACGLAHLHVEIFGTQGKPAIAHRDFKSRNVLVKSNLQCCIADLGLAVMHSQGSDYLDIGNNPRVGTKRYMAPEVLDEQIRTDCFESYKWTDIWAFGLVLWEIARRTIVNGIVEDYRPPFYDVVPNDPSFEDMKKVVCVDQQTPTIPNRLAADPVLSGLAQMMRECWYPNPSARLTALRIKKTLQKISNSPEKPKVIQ

AXL = AXL (Homo sapiens, UniProt P30530); test: Tyrosine kinase inhibition; format: biochemical
AXL, sequence (P30530 26-894): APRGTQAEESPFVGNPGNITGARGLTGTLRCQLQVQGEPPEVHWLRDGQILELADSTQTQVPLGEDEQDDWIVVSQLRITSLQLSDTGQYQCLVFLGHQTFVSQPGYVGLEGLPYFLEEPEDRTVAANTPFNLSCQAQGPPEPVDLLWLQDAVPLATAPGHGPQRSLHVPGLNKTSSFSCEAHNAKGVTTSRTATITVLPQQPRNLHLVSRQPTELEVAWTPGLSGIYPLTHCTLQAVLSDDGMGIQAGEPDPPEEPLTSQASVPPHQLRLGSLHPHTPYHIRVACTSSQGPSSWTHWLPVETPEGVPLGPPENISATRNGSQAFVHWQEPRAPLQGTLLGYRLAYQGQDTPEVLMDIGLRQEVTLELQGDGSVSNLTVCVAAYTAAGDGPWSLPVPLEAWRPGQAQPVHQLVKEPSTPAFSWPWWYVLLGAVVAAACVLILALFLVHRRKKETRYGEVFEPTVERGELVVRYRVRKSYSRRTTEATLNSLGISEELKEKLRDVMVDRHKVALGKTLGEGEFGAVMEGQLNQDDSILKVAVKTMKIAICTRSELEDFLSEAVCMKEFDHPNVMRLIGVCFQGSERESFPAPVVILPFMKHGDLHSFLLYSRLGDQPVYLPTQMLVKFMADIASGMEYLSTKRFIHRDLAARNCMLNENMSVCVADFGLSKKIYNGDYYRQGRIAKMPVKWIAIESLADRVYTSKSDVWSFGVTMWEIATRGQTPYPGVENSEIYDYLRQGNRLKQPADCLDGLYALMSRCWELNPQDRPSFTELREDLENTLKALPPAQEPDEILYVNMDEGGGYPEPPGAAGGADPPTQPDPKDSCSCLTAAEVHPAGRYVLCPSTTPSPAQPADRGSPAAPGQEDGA

TrkA = TrkA (Homo sapiens, UniProt P04629); test: Tyrosine kinase inhibition; format: biochemical
TrkA, sequence (P04629 33-796): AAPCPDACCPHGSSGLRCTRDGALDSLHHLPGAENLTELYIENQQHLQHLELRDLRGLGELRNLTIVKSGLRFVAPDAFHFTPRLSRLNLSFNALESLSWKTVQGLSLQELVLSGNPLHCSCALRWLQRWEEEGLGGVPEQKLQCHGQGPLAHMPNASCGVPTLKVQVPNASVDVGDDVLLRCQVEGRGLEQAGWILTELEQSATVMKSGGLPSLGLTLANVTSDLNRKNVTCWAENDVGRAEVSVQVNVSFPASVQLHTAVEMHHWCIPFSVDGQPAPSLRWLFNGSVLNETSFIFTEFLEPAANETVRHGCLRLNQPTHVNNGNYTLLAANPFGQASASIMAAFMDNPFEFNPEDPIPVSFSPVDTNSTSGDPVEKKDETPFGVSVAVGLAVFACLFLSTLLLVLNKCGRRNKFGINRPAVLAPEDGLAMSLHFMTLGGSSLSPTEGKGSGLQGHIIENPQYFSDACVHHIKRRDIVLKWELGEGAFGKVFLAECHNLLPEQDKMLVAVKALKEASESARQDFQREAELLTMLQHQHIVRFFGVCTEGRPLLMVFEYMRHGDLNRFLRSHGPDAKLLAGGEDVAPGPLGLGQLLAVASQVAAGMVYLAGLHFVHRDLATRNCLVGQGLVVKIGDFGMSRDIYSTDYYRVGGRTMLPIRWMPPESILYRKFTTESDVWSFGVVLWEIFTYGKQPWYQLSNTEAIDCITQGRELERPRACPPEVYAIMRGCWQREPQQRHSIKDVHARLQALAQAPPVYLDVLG

SMILES: COc1cc2c(Nc3ccc(Br)cc3F)ncnc2cc1OCCCCN(C)C.Cl.Cl [HA121-28, N-(4-bromo-2-fluorophenyl)-7-(4-(dimethylamino)butoxy)-6-methoxy quinazolin-4-amine dihydrochloride]
- AUC0-24,ss, Mean (CV%) ([1]; Steady State, 800 mg (N=3)): 23180.1 (3336.5) h*ng/mL
- Cmax,ss, Mean (CV%) ([1]; Steady State, 800 mg (N=3)): 1067.0 (216.4) ng/mL
- Tmax,ss, median [Min-Max] ([1]; Steady State, 800 mg (N=3)): 6 [4-8] h
- time to steady state ([1]; multiple dosing): two
- rat arterial ring angiogenesis [2]: able to inhibit
- AUC0-96h (Rat plasma kinetics; 7 consecutive days (10 mg/kg)): 8.42 ± 1.72 µg·h/mL
- AUC0-∞ (Rat plasma kinetics; 7 consecutive days (10 mg/kg)): 9.69 ± 2.31 µg·h/mL
- CL (Rat plasma kinetics; 7 consecutive days (10 mg/kg)): 2.36 ± 0.392 L/h/kg
- Cmax (Rat plasma kinetics; 7 consecutive days (10 mg/kg)): 0.284 ± 0.0568 µg/mL
- MRT0-∞ (Rat plasma kinetics; 7 consecutive days (10 mg/kg)): 40.0 ± 7.30 h
- Tmax (Rat plasma kinetics; 7 consecutive days (10 mg/kg)): 6.00 ± 0.00 h
- Vd (Rat plasma kinetics; 7 consecutive days (10 mg/kg)): 110 ± 24.9 L/kg
- t1/2 (Rat plasma kinetics; 7 consecutive days (10 mg/kg)): 32.9 ± 7.77 h
- AUC0-96h (Rat plasma kinetics; high dose (20 mg/kg)): 6.46 ± 0.849 µg·h/mL
- AUC0-∞ (Rat plasma kinetics; high dose (20 mg/kg)): 6.76 ± 1.04 µg·h/mL
- CL (Rat plasma kinetics; high dose (20 mg/kg)): 3.02 ± 0.483 L/h/kg
- Cmax (Rat plasma kinetics; high dose (20 mg/kg)): 0.288 ± 0.0385 µg/mL
- MRT0-96h (Rat plasma kinetics; high dose (20 mg/kg)): 22.8 ± 2.85 h
- MRT0-∞ (Rat plasma kinetics; high dose (20 mg/kg)): 27.3 ± 5.24 h
- Tmax (Rat plasma kinetics; high dose (20 mg/kg)): 5.00 ± 1.55 h
- Vd (Rat plasma kinetics; high dose (20 mg/kg)): 96.8 ± 8.19 L/kg
- t1/2 (Rat plasma kinetics; high dose (20 mg/kg)): 22.8 ± 5.00 h
- AUC0-96h (Rat plasma kinetics; intravenous (5 mg/kg)): 1.44 ± 0.214 µg·h/mL
- AUC0-∞ (Rat plasma kinetics; intravenous (5 mg/kg)): 1.47 ± 0.232 µg·h/mL
- C5min (Rat plasma kinetics; intravenous (5 mg/kg)): 246 ± 43.1 ng/mL
- CL (Rat plasma kinetics; intravenous (5 mg/kg)): 3.47 ± 0.528 L/h/kg
- MRT0-96h (Rat plasma kinetics; intravenous (5 mg/kg)): 17.2 ± 1.68 h
- MRT0-∞ (Rat plasma kinetics; intravenous (5 mg/kg)): 19.0 ± 2.82 h
- Vd (Rat plasma kinetics; intravenous (5 mg/kg)): 90.9 ± 12.3 L/kg
- t1/2 (Rat plasma kinetics; intravenous (5 mg/kg)): 18.5 ± 3.86 h
- AUC0-96h (Rat plasma kinetics; low dose (5 mg/kg)): 1.35 ± 0.419 µg·h/mL
- AUC0-∞ (Rat plasma kinetics; low dose (5 mg/kg)): 1.39 ± 0.438 µg·h/mL
- CL (Rat plasma kinetics; low dose (5 mg/kg)): 3.91 ± 1.19 L/h/kg
- Cmax (Rat plasma kinetics; low dose (5 mg/kg)): 0.0587 ± 0.0127 µg/mL
- MRT0-96h (Rat plasma kinetics; low dose (5 mg/kg)): 19.2 ± 2.41 h
- MRT0-∞ (Rat plasma kinetics; low dose (5 mg/kg)): 21.5 ± 3.23 h
- Tmax (Rat plasma kinetics; low dose (5 mg/kg)): 5.00 ± 1.10 h
- Vd (Rat plasma kinetics; low dose (5 mg/kg)): 93.5 ± 15.9 L/kg
- t1/2 (Rat plasma kinetics; low dose (5 mg/kg)): 17.4 ± 3.52 h
- AUC0-96h (Rat plasma kinetics; medium dose (10 mg/kg)): 3.2 ± 0.629 µg·h/mL
- AUC0-∞ (Rat plasma kinetics; medium dose (10 mg/kg)): 3.3 ± 0.696 µg·h/mL
- CL (Rat plasma kinetics; medium dose (10 mg/kg)): 3.15 ± 0.695 L/h/kg
- Cmax (Rat plasma kinetics; medium dose (10 mg/kg)): 0.147 ± 0.0266 µg/mL
- MRT0-96h (Rat plasma kinetics; medium dose (10 mg/kg)): 21.8 ± 2.80 h
- MRT0-∞ (Rat plasma kinetics; medium dose (10 mg/kg)): 24.7 ± 4.71 h
- Tmax (Rat plasma kinetics; medium dose (10 mg/kg)): 4.50 ± 1.22 h
- Vd (Rat plasma kinetics; medium dose (10 mg/kg)): 82.8 ± 9.31 L/kg
- t1/2 (Rat plasma kinetics; medium dose (10 mg/kg)): 18.8 ± 3.60 h
- F (oral bioavailability) (Rat plasma kinetics; rat): 93.8%
- AUC0-72h ([3]; gavage (5 mg/kg)): 1.68 ± 0.766 µg·h/mL
- AUC0-∞ ([3]; gavage (5 mg/kg)): 1.92 ± 0.992 µg·h/mL
- CL ([3]; gavage (5 mg/kg)): 3.05 ± 1.22 L/h/kg
- Cmax ([3]; gavage (5 mg/kg)): 0.0759 ± 0.0278 µg/mL
- MRT0-72h ([3]; gavage (5 mg/kg)): 20.9 ± 2.67 h
- MRT0-∞ ([3]; gavage (5 mg/kg)): 30.5 ± 8.00 h
- Tmax ([3]; gavage (5 mg/kg)): 6.75 ± 1.50 h
- Vd ([3]; gavage (5 mg/kg)): 100 ± 24.1 L/kg
- t1/2 ([3]; gavage (5 mg/kg)): 24.4 ± 5.68 h
- AUC0-72h ([3]; intravenous (5 mg/kg)): 2.61 ± 1.34 µg·h/mL
- AUC0-∞ ([3]; intravenous (5 mg/kg)): 3 ± 1.88 µg·h/mL
- C6min ([3]; intravenous (5 mg/kg)): 314 ± 61.4 ng/mL
- CL ([3]; intravenous (5 mg/kg)): 2.05 ± 0.816 L/h/kg
- MRT0-72h ([3]; intravenous (5 mg/kg)): 18.8 ± 3.77 h
- MRT0-∞ ([3]; intravenous (5 mg/kg)): 27.5 ± 11.4 h
- Vd ([3]; intravenous (5 mg/kg)): 58.7 ± 15.7 L/kg
- t1/2 ([3]; intravenous (5 mg/kg)): 22.3 ± 8.39 h
- F (oral bioavailability) ([3]; monkey): 64.4%
- excretion in original form ([4]; bile): 3.91%
- excretion in original form ([4]; feces): 27.5%
- excretion in original form ([4]; urine): 2.18%
- total excretion rate ([4]; urine and feces): 29.7%
- no observed adverse effect level (NOAEL) ([5]; 28 d, Beagle dog): 12 mg/kg
- highest non-severely toxic dose (HNSTD) ([5]; oral, four consecutive weeks): 12 mg/kg
- genetic toxicity (CHL): negative
- genetic toxicity (Mouse micronucleus test): negative
- IC50 (ALK1): 2.59 µM
- IC50 (AXL): 0.589 µM
- IC50 (TrkA): 1.36 µM
